Activity calls are given as the source filed them. No cut-off for these calls is given here. Square brackets hold non-standard residues; d marks the D form. Peptide text beside a SMILES is read from it. * marks the point of attachment. pGlu = O=C1CC[C@@H](C(=O)O)N1; NHtBu = CC(C)(C)N*; NHiPr = CC(C)N*; NHPr = CCCN*; For = O=C*
How the values were obtained:
Mus musculus [1] = test: Inhibition of oxotremorine-induced tremor in NMRI mouse at 0.13 to 16 mg/kg, ip administered 1 hr prior to oxotremorine challenge; format: functional, organism-based
Mus musculus [2] = test: Inhibition of oxotremorine-induced tremor in ip dosed NMRI mouse administered 1 hr prior to oxotremorine challenge; format: functional

SMILES	inhibition (Mus musculus [1])	Activity (Mus musculus [2])
CC(C)C[C@H](NC(=O)[C@@H]1CCCN1C=O)C(=O)NCC(N)=O (For-Pro-Leu-Gly-NH2)	inactive	
CC(C)C[C@@H]1NC(=O)[C@@H]2CCCN2C1=O	inactive	
CC(C)C[C@H](NC(=O)[C@@H]1CCC(=O)N1)C(=O)NCC(=O)NC(C)(C)C ([pGlu]-Leu-Gly-NHtBu)	inactive	
CC(C)C[C@H](NC(=O)[C@@H]1CCC(=O)N1)C(=O)NCC(=O)NC(C)C ([pGlu]-Leu-Gly-NHiPr)		2.9 mg/kg
CC(C)C[C@H](NC(=O)C1CCCC1)C(=O)NCC(N)=O	inactive	
CNC(=O)CNC(=O)[C@H](CC(C)C)NC(=O)[C@@H]1CCC(=O)N1 ([pGlu]-Leu-Gly-NHMe)	inactive	
N=C(N)NCCC[C@H](NC(=O)[C@@H]1CCCN1)C(=O)NCC(N)=O (H-Pro-Arg-Gly-NH2)	inactive	
CCNC(=O)CNC(=O)[C@H](CC(C)C)NC(=O)[C@@H]1CCCN1C=O (For-Pro-Leu-Gly-NHEt)	inactive	
NCCCC[C@H](NC(=O)[C@@H]1CCCN1)C(=O)NCC(N)=O (H-Pro-Lys-Gly-NH2)	inactive	
C#CCNC(=O)CNC(=O)[C@H](CC(C)C)NC(=O)[C@@H]1CCC(=O)N1	inactive	
CC(C)C[C@H](NC(=O)[C@@H]1CCC(=O)N1)C(=O)NCC(=O)N(C)C ([pGlu]-Leu-Gly-NMe2)		1.3 mg/kg
CCCNC(=O)CNC(=O)[C@H](CC(C)C)NC(=O)[C@@H]1CCC(=O)N1 ([pGlu]-Leu-Gly-NHPr)		10 mg/kg
CC(C)C[C@H](NC(=O)[C@@H]1CCCN1)C(=O)NCC(N)=O (H-Pro-Leu-Gly-NH2)		3.6 mg/kg
CCN(C)C(=O)CNC(=O)[C@H](CC(C)C)NC(=O)[C@@H]1CCC(=O)N1	inactive	
CCNC(=O)CNC(=O)[C@H](CC(C)C)NC(=O)[C@@H]1CCC(=O)N1 ([pGlu]-Leu-Gly-NHEt)		7.8 mg/kg
CCNC(=O)CNC(=O)[C@H](CC(C)C)NC(=O)C1CCCC1	inactive	

From ChEMBL document CHEMBL3244209, “Tripeptide analogues of melanocyte-stimulating hormone release-inhibiting hormone (Pro-Leu-Gly-NH2) as inhibitors of oxotremorine-induced tremor” (1979)
